Earlier results, collected in patent US6761879B1, “Titanium derived compounds, preparation and use thereof” (Sanofi-Synthelabo, priority 1999, dated 2004).

Tests used:
[1] = known from prior art
[2] = in particular in aqueous solution

Q: With `[F][Ti]([F])([F])[F]` [titanium tetrafluoride] as the compound, how does the “formation of an amorphous protective layer (glaze) at the surface of the enamel of the tooth” value [1] read?
A: Its value is “forming an amorphous protective layer”.

Q: And the stability [2]?
A: Its stability is “relatively unstable”.

Q: What about the “pH in aqueous solution” value of the same compound?
A: The value was “about 1.5”.
